From patent US20220267276A1, “NLRP MODULATORS” (Novartis AG, priority 2018, published 2022) come the findings set out here.

Each structure is given as a SMILES string. Where only a bound is given, the exact number is not on record here.

The subject of data set [1] is IL-1β production in PMA-differentiated THP-1 cells. The experiment in a line: IL-1β production in PMA-differentiated THP-1 cells stimulated with gramicidin (hTHP-1 assay, 2% fetal bovine serum). The class given is cell-based, human. How it is done:
THP-1 cells were purchased from the American Type Culture Collection and sub-cultured according to instructions from the supplier. Cells were cultured in complete RPMI 1640 (containing 10% heat inactivated FBS, penicillin (100 units/ml) and streptomycin (100 μg/ml)), and maintained in log phase prior to experimental setup. Prior to the experiment, compounds were dissolved in dimethyl sulfoxide (DMSO) to generate a 30 mM stock. The compound stock was first pre-diluted in DMSO to 3, 0.34, 0.042 and 0.0083 mM intermediate concentrations and subsequently spotted using Echo550 liquid handler into an empty 384-well assay plate to achieve desired final concentration (e.g. 100, 33, 11, 3,7, 1.2, 0.41, 0.14, 0.046, 0.015, 0.0051, 0.0017 μM). DMSO was backfilled in the plate to achieve a final DMSO assay concentration of 0.37%. The plate was then sealed and stored at room temperature until required. THP-1 cells were treated with PMA (Phorbol 12-myristate 13-acetate) (20 ng/ml) for 16-18 hours. On the day of the experiment the media was removed and adherent cells were detached with trypsin for 5 minutes. Cells were then harvested, washed with complete RPMI 1640, spun down, and resuspended in RPMI 1640 (containing 2% heat inactivated FBS, penicillin (100 units/ml) and streptomycin (100 μg/ml). The cells were plated in the 384-well assay plate containing the spotted compounds at a density of 50,000 cells/well (final assay volume 50 μl). Ceils were incubated with compounds for 1 hour and then stimulated with gramicidin (5 μM) (Enzo) for 2 hours. Plates were then centrifuged at 340 g for 5 min. Cell free supernatant (40 μL) was collected using a 96-channel PlateMaster (Gilson) and the production of IL-1β was evaluated by HTRF (cisbio). The plates were incubated for 18 h at 4° C. and read using the preset HTRF program (donor emission at 620 nm, acceptor emission at 668 nm) of the SpectraMax i3x spectrophotometer (Molecular Devices, software SoftMax 6). A vehicle only control and a dose titration of CRID3 (100-0.0017 μM) were run concurrently with each experiment. Data was normalized to vehicle-treated samples (equivalent to 0% inhibition) and CRID3 at 100 μM (equivalent to 100% inhibition).
Procedure 2: IL-1β Production in PMA-Differentiated THP-1 Cells Stimulated with Gramicidin
THP-1 cells were purchased from the American Type Culture Collection and sub-cultured according to instructions from the supplier. Prior to experiments, cells were cultured in complete RPMI 1640 (containing 10% heat inactivated FBS, penicillin (100 units/ml) and streptomycin (100 μg/ml)), and maintained in log phase prior to experimental setup. Prior to the experiment THP-1 were treated with PMA (Phorbol 12-myristate 13-acetate) (20 ng/mi) for 16-18 hours. Compounds were dissolved in dimethyl sulfoxide (DMSO) to generate a 30 mM stock. On the day of the experiment the media was removed and adherent cells were detached with trypsin for 5 minutes. Cells were then harvested, washed with complete RPMI 1640, spun down, resuspended in RPMI 1640 (containing 2% heat inactivated FBS, penicillin (100 units/ml) and streptomycin (100 μg/ml), The cells were plated in a 384-well plate at a density of 50,000 cells/well (final assay volume 50 μl). Compounds were first dissolved in assay medium to obtain a 5× top concentration of 500 μM. 10 step dilutions (1:3) were then undertaken in assay medium containing 1.67% DMSO. 5× compound solutions were added to the culture medium to achieve desired final concentration (e.g. 100, 33, 11, 3.7, 1.2, 0.41, 0.14, 0.046, 0.015, 0.0051, 0.0017 μM). Final DMSO concentration was at 0.37%. Cells were incubated with compounds for 1 hour and then stimulated with gramicidin (5 μM) (Enzo) for 2 hours. Plates were then centrifuged at 340 g for 5 min. Cell free supernatant (40 μL) was collected using a 96-channel PlateMaster (Gilson) and the production of IL-1β was evaluated by HTRF (cisbio). […]

A short description of data set [2]: Colon pharmacokinetics in mice. The class given is in vivo. As to conditions: colon to plasma concentration ratio at 8 h time point, 30 mg/kg oral gavage in 0.5% methyl-cellulose, Male C57BL/6 Mouse; for Kp at 8 h: read-out: Mouse TD Colon/Plasma @ 8. On the procedure:
Assay 2: Colon Pharmacokinetics in Mice
The test compound was formulated in 0.5% methyl-cellulose in water and dosed via oral gavage at 30 mg/kg to Male C57BL/6 Mouse. At various time points (typically 15 min, 30 min, 1, 2, 4, 6 and 8 h) post dosing, blood samples were removed via cardiac […] puncture and intact colons were excised from the […]. Blood samples were centrifuged at 1500 x g for 15 min to collect plasma. At the terminal time point each individual animal is anaesthetized, abdominal cavity is opened and from 2 cm below the caecum a 4 cm sample of the colon is dissected, cut open on the longitudinal axis and the solid contents removed by flushing with 2 mL of physiological fluid. The colon was further washed by putting it in 5 mL of physiological saline and shaken for 1 minute. The colon was pet dry weighed and transferred in 2 mL tubes. Colon will be weighted and homogenized with water by tissue weight (g) to water volume (mL) at ratio 1:3 before analysis. The actual concentration is the detected value multiplied by the dilution factor. A colon to plasma ratio was determined as the ratio of the colon cone, to the plasma cone, in pg hr/g, at 8 h time point.

Where [3] appears, read: Homo sapiens, THP-1, average IC50, hTHP-1 assay containing 2% fetal bovine serum, class symbols.
Where [4] appears, read: Homo sapiens, THP-1, average IC50, hTHP-1 assay containing 2% fetal bovine serum, given as numeric bound.
Setting [5] is: average IC50, hTHP-1 assay containing 2% fetal bovine serum, class symbols.

For orientation: IC50 means the concentration at which inhibition is half-maximal. On to `CNS(=O)(=O)c1ccc(S(=O)(=O)NC(=O)Nc2c3c(nc4c2CCC4)CCC3)c(OC)c1` [Compound 108], for which, in data set [1] (setting [3]), the IC50 lay within 1000 to 5000 nM.

With `CNS(=O)(=O)c1ccc(S(=O)(=O)NC(=O)Nc2c(C(C)C)cc(C#N)cc2C(C)C)c(O)c1` [Compound 119], in data set [1] (setting [3]), the IC50 is 40 to 200 nM.

With `CC(C)c1cc(C#N)cc(C2CC2)c1NC(=O)NS(=O)(=O)c1sc(C(C)(C)O)nc1CO` [Compound 121], in data set [1] (setting [3]), the IC50 was in the range of 1000 to 5000 nM.

`CNS(=O)(=O)c1ccc(S(=O)(=O)NC(=O)Nc2c(C(C)C)cncc2C(C)C)c(CO)c1` [Compound 105] displayed an IC50 in data set [1] (setting [3]) of 1000 to 5000 nM.

As for `CC(C)c1cc(C#N)cc(CCO)c1NC(=O)NS(=O)(=O)c1sc(C(C)(C)O)nc1CO` [Compound 114], the IC50 in data set [1] (setting [3]) was in the range of 5000 to 30000 nM.

On to `CNS(=O)(=O)c1ccc(S(=O)(=O)NC(=O)Nc2c3c(nc4c2CCC4C)CCC3)c(CO)c1` (stereo not shown) [Compound 203], for which the IC50 in data set [1] (setting [3]) was 1000 to 5000 nM.

Consider `Cc1cc(C(=O)NCCc2ccc(S(=O)(=O)NC(=O)Nc3c(C(C)C)cc(C#N)cc3C(C)C)cc2)no1` [Compound 302], for which the IC50 in data set [1] (setting [4]) is > 30000 nM.

As to `COC(=O)c1sc2c(c1NC(=O)NS(=O)(=O)c1ncc(C(C)(C)O)s1)CCCC2` [Compound 304], in data set [1] (setting [3]), the IC50 was in the range of 5000 to 30000 nM.

Turning to `CC(C)(O)c1nc(CO)c(S(=O)(=O)NC(=O)Nc2c3c(c(C#N)c4c2CCC4)CCC3)s1` [Compound 122], the Kp at 8 h in data set [2] came out at 3530. In data set [1] (setting [3]), this molecule came in with an IC50 of 1000 to 5000 nM.

In the case of `CC(C)c1cc2c(c(C(C)C)c1NC(=O)NS(=O)(=O)c1sc(C(C)(C)O)nc1CO)COC2` [Compound 106], the IC50 in data set [1] (setting [3]) was in the range of 200 to 1000 nM.

With `CC(C)c1cc(C#N)c(F)c(C(C)C)c1NC(=O)NS(=O)(=O)c1cc(C(C)(C)O)no1` [Compound 301], in data set [1] (setting [3]), the IC50 lay in the range of 200 to 1000 nM.

In data set [1] (Homo sapiens, THP-1), `CC(C)c1nc(-c2cccc(C(F)(F)F)c2)c(F)c(C(C)C)c1NC(=O)NS(=O)(=O)c1sc(C(C)(C)O)nc1CO[Si](C)(C)C(C)(C)C` [Compound 107] returned an IC50 of 1000 to 5000 nM.

Turning to `Cc1cc(C(=O)NCCc2ccc(S(=O)(=O)NC(=O)Nc3c4c(cc5c3CCC5)CCC4)cc2)no1` [Compound 303], the IC50 in data set [1] (setting [4]) is > 30000 nM.

In data set [1] (setting [3]), `CC(C)(O)c1nc(CO)c(S(=O)(=O)NC(=O)Nc2c3c(nc4c2CCC4)CCC3)s1` [Compound 111] yielded an IC50 of 1000 to 5000 nM.

Take `CC(C)c1cc(C#N)cc(C(C)C)c1NC(=O)NS(=O)(=O)c1sc(C(C)(C)O)nc1CO` [Compound 101]: in data set [2], the Kp at 8 h amounted to 3000. The IC50 in data set [1] (setting [3]) lay within 200 to 1000 nM.

Turning to `CC(C)c1cc(C#N)c(F)c(C(C)C)c1NC(=O)NS(=O)(=O)c1sc(C(C)(C)O)nc1CO` [Compound 123], in data set [2], the “Mouse TD Colon/Plasma @ 8” value was 12,731. For the same molecule, the IC50 in data set [1] (setting [3]) was 200 to 1000 nM.

As to `CC(C)c1c(F)c(C#N)cc(C2CCOCC2)c1NC(=O)NS(=O)(=O)c1sc(C(C)(C)O)nc1CO` [Compound 204], the IC50 in data set [1] (setting [4]) was > 15000 nM.

Take `O=C(CCCC[C@@H]1SC[C@@H]2NC(=O)N[C@@H]21)NCCCn1cc(CCC(=O)Nc2cccc(S(=O)(=O)NC(=O)Nc3c4c(cc5c3CCC5)CCC4)c2)nn1` [Compound 324]: the IC50 in data set [1] (setting [4]) is > 30000 nM.

For the molecule `CC1CCc2c1nc1c(c2NC(=O)NS(=O)(=O)c2sc(C(C)(C)O)nc2CO)CCC1` (stereo not shown) [Compound 202], the IC50 in data set [1] (setting [3]) was 200 to 1000 nM.

For `CNS(=O)(=O)c1ccc(S(=O)(=O)NC(=O)Nc2c(C(C)C)cc(C#N)cc2C(C)C)c(C(=O)OC)c1` [Compound 115], the IC50 in data set [1] (setting [3]) was in the range of 5000 to 30000 nM.

Consider `CCC(C)c1cc(C#N)c(F)c(C(C)C)c1NC(=O)NS(=O)(=O)c1sc(C(C)(C)O)nc1CO` (stereo not shown) [Compound 113], for which, in data set [2], the Kp at 8 h was found to be 4560. The molecule also had an IC50 in data set [1] (setting [3]) of 200 to 1000 nM.

The molecule `CNS(=O)(=O)c1ccc(S(=O)(=O)NC(=O)Nc2c3c(nc4c2CCC4)CCC3)c(CO)c1` [Compound 103] returned an IC50 in data set [1] (setting [3]) of 200 to 1000 nM.

`CNS(=O)(=O)c1ccc(S(=O)(=O)NC(=O)Nc2c(C(C)C)cc(C#N)c(F)c2C(C)C)c(OC)c1` [Compound 120] showed an IC50 in data set [1] (setting [5]) of 40 to 200 nM.

As to `CNS(=O)(=O)c1ccc(S(=O)(=O)NC(=O)Nc2c(C(C)C)cc(C#N)c(F)c2C(C)C)c(OC)c1` [Compound 118], in data set [2], the Kp at 8 h turned out to be 5950. This molecule yielded a half-maximal inhibitory concentration (IC50) in data set [1] (setting [5]) of 200 to 1000 nM.

In data set [1] (setting [3]), `CC(C)(O)c1nc(CO)c(S(=O)(=O)NC(=O)Nc2c3c(nc4c2CCC4(C)C)CCC3)s1` [Compound 201] displayed an IC50 of 200 to 1000 nM.

For `CNS(=O)(=O)c1ccc(S(=O)(=O)NC(=O)Nc2c3c(cc4c2CCC4)CCC3)c(O)c1` [Compound 124], in data set [2], the Kp at 8 h stood at 26. Also, the IC50 in data set [1] (setting [3]) was in the range of 5000 to 30000 nM.

On to `CC(C)c1c(F)c(C#N)cc(C2CCOCC2)c1NC(=O)NS(=O)(=O)c1sc(C(C)(C)O)nc1CO` [Compound 112], for which the IC50 in data set [1] (setting [3]) lay within 1000 to 5000 nM.

Regarding `CC(C)c1cc(C#N)c(F)c(C(C)C)c1NC(=O)NS(=O)(=O)c1sc(C(C)(C)O)nc1CCO` [Compound 102], the Kp at 8 h in data set [2] was 802. Further, in data set [1] (setting [3]), the IC50 was in the range of 40 to 200 nM.

For `CNS(=O)(=O)c1ccc(S(=O)(=O)NC(=O)Nc2c(C(C)C)cc(C#N)c(F)c2C(C)C)c(O)c1` [Compound 117], the IC50 in data set [1] (setting [3]) was 40 to 200 nM.

As to `CC(C)c1cncc(C(C)C)c1NC(=O)NS(=O)(=O)c1sc(C(C)(C)O)nc1CO` [Compound 104], the half-maximal inhibitory concentration (IC50) in data set [1] (setting [3]) is 1000 to 5000 nM.

Consider `CNS(=O)(=O)c1ccc(S(=O)(=O)NC(=O)Nc2c(C(C)C)cncc2C(C)C)cc1CO` [Compound 109], for which the IC50 in data set [1] (setting [3]) was in the range of 1000 to 5000 nM.

Turning to `CNS(=O)(=O)c1ccc(S(=O)(=O)NC(=O)Nc2c(C(C)C)cc(C#N)cc2C(C)C)c(CO)c1` [Compound 116], the “Mouse TD Colon/Plasma @ 8” value in data set [2] is recorded as 18,645. The same molecule had an IC50 in data set [1] (setting [3]) of 200 to 1000 nM.
